Literature values as cited in PMC6337720 (Inorganic chemistry, 2018).

Details: aerated CH3CN

ΦΔ singlet oxygen quantum yield of the standard: 0.56
SMILES: F[P-](F)(F)(F)(F)F.F[P-](F)(F)(F)(F)F.[Ru+2].c1ccc(-c2ccccn2)nc1.c1ccc(-c2ccccn2)nc1.c1ccc(-c2ccccn2)nc1 [[Ru(bpy)3](PF6)2]
